Laboratory results taken from US5082828A, “Eclosion hormone peptides” (Sandoz Ltd., priority 1991, dated 1992).

Columns and labels:
[1] = system: pharate adult H. virescens; set-up: species or system Heliothis virescens; settings: in vivo
Method: The biological activity of EH in fractions from each purification step is detected using a pharate adult H. virescens in vivo assay, similar to that described by Fugo (1983) Appl. Ent. Zoo. 18:540-44 and Truman (1973) Biol. Bull. 14:44:200-211, both of which are incorporated by reference. Insects are injected in the dorsal thorax with 5 μl aliquots dissolved in physiological saline, approximately 7 hr before normal eclosion, which occurs just after the onset of darkness. Moths eclosing within 3 hr of injection are scored as receiving EH, a positive response.

[2] = system: late second stadium M. sexta; format: in vivo, Manduca sexta
Method: The biological activity of isolated EH is assayed as follows. Late second stadium M. sexta are selected for assay when third stadium mandibles are visible through the fluid-filled second stadium head capsule. Development of these larvae, held at 31° C., is checked at 15 min intervals until an air bubble first appears in the head capsule. "Air bubble" larvae are immediately injected in the dorsal abdomen with 1 μl of the test fractions, and time to molt of treated and controls is compared at room temperature ~21° C.). Mean time to molt for EH-affected larvae is 50 min; that for controls is 109 min. Purified EH is active at 0.1 ng per pharate adult H. virescens, and at 0.01 ng per second stadium M. sexta.

[3] = system: larval molt; settings: EH present in the hemolymph during a sensitive period when it is normally absent; cited from earlier work

- dose evoking positive EH-like response (active dose) [1]: 0.1 ng per pharate adult
- dose evoking positive EH-like response (active dose) ([2]; in vivo): 0.01 ng per second stadium M. sexta
Substance: Eclosion hormone [EH]
- mean time to molt ([2]; EH-affected larvae at room temperature ~21° C., controls 109 min): 50 min
- effect on larval molt [3]: block the larval molt completely
